This test addresses T1, NMDA receptor GRIN1/GRIN2B (NR2B) expressed in HEK293 cells (Homo sapiens, UniProt Q13224).
T1 construct: host or cells: HEK293
Nature of the test: Reversal of Ro 25-6981-mediated suppression of the Ca2+ response (fluo-8 fluorescence, FDSS) in HEK293 cells expressing GRIN1 and GRIN2B. The class given is cell-based. The settings on record: % reversal=100*(R−Rneg)/(Rpos−Rneg) of Ro 25-6981 suppression of co-agonist (glutamate/glycine) Ca2+ response, 10 min pre-incubation, compound concentration not given. An outline of the steps: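 HEK293 with stable GRIN1 and tetracycline-induced GRIN2B, loaded with fluo-8 and preincubated 10 min with compound plus Ro 25-6981 and 5,7-dichlorokynurenic acid. Ca2+ response recorded 2 min after glutamate/glycine/CaCl2 co-agonist addition. % reversal = 100*(R−Rneg)/(Rpos−Rneg) from end fluorescence ratios.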

T1 sequence (Q13224 27-1484, other chains not shown): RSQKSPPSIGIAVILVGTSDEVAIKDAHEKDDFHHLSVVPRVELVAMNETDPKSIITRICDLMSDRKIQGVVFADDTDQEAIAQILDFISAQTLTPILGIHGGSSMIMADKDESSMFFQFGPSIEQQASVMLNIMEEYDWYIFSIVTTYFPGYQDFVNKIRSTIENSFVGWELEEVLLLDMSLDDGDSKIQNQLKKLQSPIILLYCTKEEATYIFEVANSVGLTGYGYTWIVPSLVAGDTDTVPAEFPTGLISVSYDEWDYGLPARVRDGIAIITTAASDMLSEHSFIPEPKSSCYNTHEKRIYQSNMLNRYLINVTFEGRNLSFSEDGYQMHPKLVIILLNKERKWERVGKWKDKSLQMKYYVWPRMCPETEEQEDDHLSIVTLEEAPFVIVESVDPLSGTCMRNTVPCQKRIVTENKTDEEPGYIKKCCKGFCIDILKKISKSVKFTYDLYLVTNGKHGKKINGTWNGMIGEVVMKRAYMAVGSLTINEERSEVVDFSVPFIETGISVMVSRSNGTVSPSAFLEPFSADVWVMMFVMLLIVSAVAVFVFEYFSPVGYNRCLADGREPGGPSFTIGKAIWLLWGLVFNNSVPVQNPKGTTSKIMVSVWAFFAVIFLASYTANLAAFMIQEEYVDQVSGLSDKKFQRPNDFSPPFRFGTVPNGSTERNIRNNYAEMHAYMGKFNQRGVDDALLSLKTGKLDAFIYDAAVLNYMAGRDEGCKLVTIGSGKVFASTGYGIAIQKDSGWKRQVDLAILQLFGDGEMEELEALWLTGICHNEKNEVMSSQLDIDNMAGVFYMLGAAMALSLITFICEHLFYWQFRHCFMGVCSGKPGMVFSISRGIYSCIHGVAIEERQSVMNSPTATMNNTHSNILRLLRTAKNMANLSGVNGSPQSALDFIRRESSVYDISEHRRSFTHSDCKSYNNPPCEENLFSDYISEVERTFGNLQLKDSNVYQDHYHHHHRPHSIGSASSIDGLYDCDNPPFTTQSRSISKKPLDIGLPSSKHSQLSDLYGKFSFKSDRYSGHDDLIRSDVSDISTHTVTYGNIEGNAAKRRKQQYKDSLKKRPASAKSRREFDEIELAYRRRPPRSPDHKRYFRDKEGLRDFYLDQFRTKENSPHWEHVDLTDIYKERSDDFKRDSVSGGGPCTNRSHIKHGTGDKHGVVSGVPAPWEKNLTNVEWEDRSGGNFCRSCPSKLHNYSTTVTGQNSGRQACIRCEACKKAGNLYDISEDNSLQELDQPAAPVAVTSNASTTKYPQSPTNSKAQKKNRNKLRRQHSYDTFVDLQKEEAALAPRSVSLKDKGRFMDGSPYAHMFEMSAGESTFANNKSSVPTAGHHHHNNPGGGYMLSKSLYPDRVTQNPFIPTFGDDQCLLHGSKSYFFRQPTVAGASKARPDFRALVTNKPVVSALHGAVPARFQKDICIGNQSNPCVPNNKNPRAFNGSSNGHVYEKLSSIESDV

Regarding `O=C(Cn1cnc2scc(-c3ccc(Cl)c(C(F)(F)F)c3)c2c1=O)N1CCC(F)C1` (stereo not shown) [Example 19, 5-[4-chloro-3-(trifluoromethyl)phenyl]-3-[2-(3-fluoropyrrolidin-1-yl)-2-oxoethyl]-3H,4H-thieno[2,3-d]pyrimidin-4-one], the “Response Recovered (%)” value is 93%. `Cc1cc(C(F)(F)F)ccc1-c1csc2ncn(CC(=O)N3CCCC3)c(=O)c12` [Example 50]: the “Response Recovered (%)” value worked out at 9%. Take `O=c1c2c(-c3ccc(Cl)c(C(F)(F)F)c3)csc2ncn1/N=C/N1CCCC1` [Example 94, (E)-5-(4-chloro-3-(trifluoromethyl)phenyl)-3-((pyrrolidin-1-ylmethylene)amino)thieno[2,3-d]pyrimidin-4(3H)-one]: the “Response Recovered (%)” value was 18%. In the case of `CC1CCCC(C)N1C(=O)Cn1cnc2scc(-c3ccc(Cl)cc3)c2c1=O` (stereo not shown) [Example 12, 5-(4-chlorophenyl)-3-[2-(2,6-dimethylpiperidin-1-yl)-2-oxoethyl]-3H,4H-thieno[2,3-d]pyrimidin-4-one] it was −1%; in that of `O=C(Cn1cnc2scc(-c3cc(C(F)(F)F)ccc3F)c2c1=O)N1CCCC1` [Example 54, 5-[2-fluoro-5-(trifluoromethyl)phenyl]-3-[2-oxo-2-(pyrrolidin-1-yl)ethyl]-3H,4H-thieno[2,3-d]pyrimidin-4-one], 20%; in that of `CC(C)(C)c1ccc(-c2csc3ncn(CC(=O)N4CCCC4)c(=O)c23)cc1` [Example 35, 5-(4-tert-butylphenyl)-3-[2-oxo-2-(pyrrolidin-1-yl)ethyl]-3H,4H-thieno[2,3-d]pyrimidin-4-one], 14%.

In the case of `O=C(Cn1cnc2sc(-c3ccc(Cl)cc3)cc2c1=O)N1CCCC1` [Example 74, 6-(4-chlorophenyl)-3-(2-oxo-2-(pyrrolidin-1-yl)ethyl)thieno[2,3-d]pyrimidin-4(3H)-one], the “Response Recovered (%)” value worked out at 1%. `O=C(Cn1cnc2scc(-c3ccc(C(F)(F)F)cc3)c2c1=O)N1CCCC1C(F)(F)F` (stereo not shown) [Example 18, 3-{2-oxo-2-[2-(trifluoromethyl)pyrrolidin-1-yl]ethyl}-5-[4-(trifluoromethyl)phenyl]-3H,4H-thieno[2,3-d]pyrimidin-4-one]: the “Response Recovered (%)” value came to 8%. Take `O=C(Cn1c(C(F)(F)F)nc2scc(-c3ccc(Cl)cc3)c2c1=O)N1CCCC1C(F)(F)F` (stereo not shown) [Example 104, 5-(4-chlorophenyl)-3-(2-oxo-2-(2-(trifluoromethyl)pyrrolidin-1-yl)ethyl)-2-(trifluoromethyl)thieno[2,3-d]pyrimidin-4(3H)-one]: the “Response Recovered (%)” value is −2%. Under `O=C(Cn1cnc2scc(-c3ccc(Cl)cc3)c2c1=O)NC1CC1` [Example 5, 2-[5-(4-chlorophenyl)-4-oxo-3H,4H-thieno[2,3-d]pyrimidin-3-yl]-N-cyclopropylacetamide] stands 2%; under `O=C(Cn1cnc2scc(-c3ccc(Cl)c(F)c3)c2c1=O)N1CCC(F)C1` (stereo not shown) [Example 59, 5-(4-chloro-3-fluorophenyl)-3-[2-(3-fluoropyrrolidin-1-yl)-2-oxoethyl]-3H,4H-thieno[2,3-d]pyrimidin-4-one], 43%.

On to `Cc1sc2ncn(CC(=O)N3CCCC3)c(=O)c2c1-c1ccc(Cl)cc1` [Example 79, 5-(4-Chloro-phenyl)-6-methyl-3-(2-oxo-2-pyrrolidin-1-yl-ethyl)-3H-thieno[2,3-d]pyrimidin-4-one], for which the “Response Recovered (%)” value came to 17%.

Take `O=C(Cn1cnc2scc(-c3ccc(Cl)cc3)c2c1=O)N1CCC(F)(F)CC1` [Example 14, 5-(4-chlorophenyl)-3-[2-(4,4-difluoropiperidin-1-yl)-2-oxoethyl]-3H,4H-thieno└2,3-d┘pyrimidin-4-one]: the “Response Recovered (%)” value is 2%.

On to `O=C(Cn1cnc2scc(-c3ccc(Cl)cc3)c2c1=O)NC1CCC1` [Example 9, 2-[5-(4-chlorophenyl)-4-oxo-3H,4H-thieno[2,3-d]pyrimidin-3-yl]-N-cyclobutylacetamide], for which the “Response Recovered (%)” value was 3%. For the compound `O=C(Cn1cnc2scc(-c3ccc(Cl)cc3)c2c1=O)N1CCOCC1` [Example 4, 5-(4-chlorophenyl)-3-[2-(morpholin-4-yl)-2-oxoethyl]-3H,4H-thieno└2,3-d┘pyrimidin-4-one], the “Response Recovered (%)” value was determined as 3%. In the case of `O=C(Cn1cnc2scc(-c3ccc(F)c(C(F)(F)F)c3)c2c1=O)N1CCCC1` [Example 47, 5-[4-fluoro-3-(trifluoromethyl)phenyl]-3-[2-oxo-2-(pyrrolidin-1-yl)ethyl]-3H,4H-thieno[2,3-d]pyrimidin-4-one] it was 43%; in that of `O=C(Cn1cnc2scc(-c3ccnc(C(F)(F)F)c3)c2c1=O)N1CCCC1` [Example 46, 3-[2-oxo-2-(pyrrolidin-1-yl)ethyl]-5-[2-(trifluoromethyl)pyridin-4-yl]-3H,4H-thieno[2,3-d]pyrimidin-4-one], −1%. In the case of `Cc1sc2ncn(CC(=O)N3CCCC3)c(=O)c2c1-c1ccc(F)c(C(F)(F)F)c1` [Example 81, 5-[4-fluoro-3-(trifluoromethyl)phenyl]-6-methyl-3-[2-oxo-2-(pyrrolidin-1-yl)ethyl]-3H,4H-thieno[2,3-d]pyrimidin-4-one] it was 40%; in that of `COc1ccc(-c2csc3ncn(CC(=O)N4CCCC4)c(=O)c23)cn1` [Example 36, 5-(6-methoxypyridin-3-yl)-3-[2-oxo-2-(pyrrolidin-1-yl)ethyl]-3H,4H-thieno[2,3-d]pyrimidin-4-one], 2%; in that of `O=C(Cn1cnc2scc(-c3ccccc3Cl)c2c1=O)N1CCCC1` [Example 52, 5-(2-chlorophenyl)-3-[2-oxo-2-(pyrrolidin-1-yl)ethyl]-3H,4H-thieno[2,3-d]pyrimidin-4-one], 4%. Under `O=C(Cn1cnc2scc(-c3ccc(Cl)c(Cl)c3)c2c1=O)N1CCCC1` [Example 37, 5-(3,4-dichlorophenyl)-3-[2-oxo-2-(pyrrolidin-1-yl)ethyl]-3H,4H-thieno[2,3-d]pyrimidin-4-one] stands 61%; under `CC(C(=O)N1CCCC1)n1cnc2scc(-c3ccc(F)c(Cl)c3)c2c1=O` (stereo not shown) [Example 57, 5-(3-chloro-4-fluorophenyl)-3-[1-oxo-1-(pyrrolidin-1-yl)propan-2-yl]-3H,4H-thieno[2,3-d]pyrimidin-4-one], 3%; under `O=C(Nn1cnc2scc(-c3ccc(F)c(Cl)c3)c2c1=O)C1CCCC1` [Example 96, N-[5-(3-chloro-4-fluorophenyl)-4-oxo-3H,4H-thieno[2,3-d]pyrimidin-3-yl]cyclopentanecarboxamide], 27%.

On to `O=C(Cn1cnc2scc(-c3ccc(Cl)cc3)c2c1=O)N1CCC(F)CC1` [Example 2, 5-(4-chlorophenyl)-3-[2-(4-fluoropiperidin-1-yl)-2-oxoethyl]-3H,4H-thieno[2,3-d]pyrimidin-4-one], for which the “Response Recovered (%)” value is recorded as 25%. Consider `O=C(Cn1cnc2scc(-c3ccc(Cl)c(F)c3)c2c1=O)N1CCCC1` [Example 21, 5-(4-chloro-3-fluorophenyl)-3-(2-oxo-2-(pyrrolidin-1-yl)ethyl)thieno[2,3-d]pyrimidin-4(3H)-one], for which the “Response Recovered (%)” value turned out to be 19%.

The values above are taken from patent US11541057B2, “Thienopyrimidinone NMDA receptor modulators and uses thereof” (Cadent Therapeutics, Inc., priority 2015, dated 2023).
